Reference: ChEMBL document CHEMBL5046282, “Discovery of Brain-Penetrant Glucosylceramide Synthase Inhibitors with a Novel Pharmacophore” (J Med Chem, 2022)
pIC50: −log10 of the molar value. Values after ≈ are worked out from the molar mass of the structure shown. Active and inactive are the calls of the source. No cut-off for these calls is given here.

Experiments:
[1] = 1-Octanol/aqueous buffer partition coefficient, logD of the compound at pH 7.4 by chromatographic method; assay type: physicochemical
[2] = Kinetic solubility of the compound in JP2 fluid at pH 6.8 by precipitation method; assay type: physicochemical; settings: read-out: Kinetic_solubility
[3] = target: T1, Ceramide glucosyltransferase (Homo sapiens, UniProt Q16739); assay: Inhibition of human GCS using C8-ceramide and UDP-glucose as substrate incubated for 1 hr by RapidFire mass spectrometry
T1 sequence (Q16739 whole entry): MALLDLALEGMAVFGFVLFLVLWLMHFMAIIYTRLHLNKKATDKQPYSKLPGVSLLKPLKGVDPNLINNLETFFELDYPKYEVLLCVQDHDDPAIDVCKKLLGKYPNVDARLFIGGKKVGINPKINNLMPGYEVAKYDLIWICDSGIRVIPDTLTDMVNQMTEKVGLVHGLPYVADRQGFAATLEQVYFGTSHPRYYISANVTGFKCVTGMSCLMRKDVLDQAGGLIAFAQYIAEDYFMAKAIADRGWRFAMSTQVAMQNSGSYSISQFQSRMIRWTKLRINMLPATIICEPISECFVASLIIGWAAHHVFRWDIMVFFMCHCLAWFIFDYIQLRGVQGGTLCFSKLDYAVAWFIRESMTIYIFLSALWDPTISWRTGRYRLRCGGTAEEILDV

[4] = Efflux ratio of apparent permeability from basolateral to apical side over apical to basolateral side in dog MDCK-MDR1 cells at 1 uM measured after 1 hr by LC-MS/MS analysis; assay type: ADME, cell-based, Canis lupus familiaris
[5] = target: hERG (Homo sapiens, UniProt Q12809); assay: Inhibition of hERG expressed in CHO-K1 cells at 10 uM incubated for 5 mins by whole cell-automated voltage clamp analysis; assay type: toxicity, cell-based; settings: CHO-K1 cells expressing hERG
Chain of hERG (Q12809 whole entry): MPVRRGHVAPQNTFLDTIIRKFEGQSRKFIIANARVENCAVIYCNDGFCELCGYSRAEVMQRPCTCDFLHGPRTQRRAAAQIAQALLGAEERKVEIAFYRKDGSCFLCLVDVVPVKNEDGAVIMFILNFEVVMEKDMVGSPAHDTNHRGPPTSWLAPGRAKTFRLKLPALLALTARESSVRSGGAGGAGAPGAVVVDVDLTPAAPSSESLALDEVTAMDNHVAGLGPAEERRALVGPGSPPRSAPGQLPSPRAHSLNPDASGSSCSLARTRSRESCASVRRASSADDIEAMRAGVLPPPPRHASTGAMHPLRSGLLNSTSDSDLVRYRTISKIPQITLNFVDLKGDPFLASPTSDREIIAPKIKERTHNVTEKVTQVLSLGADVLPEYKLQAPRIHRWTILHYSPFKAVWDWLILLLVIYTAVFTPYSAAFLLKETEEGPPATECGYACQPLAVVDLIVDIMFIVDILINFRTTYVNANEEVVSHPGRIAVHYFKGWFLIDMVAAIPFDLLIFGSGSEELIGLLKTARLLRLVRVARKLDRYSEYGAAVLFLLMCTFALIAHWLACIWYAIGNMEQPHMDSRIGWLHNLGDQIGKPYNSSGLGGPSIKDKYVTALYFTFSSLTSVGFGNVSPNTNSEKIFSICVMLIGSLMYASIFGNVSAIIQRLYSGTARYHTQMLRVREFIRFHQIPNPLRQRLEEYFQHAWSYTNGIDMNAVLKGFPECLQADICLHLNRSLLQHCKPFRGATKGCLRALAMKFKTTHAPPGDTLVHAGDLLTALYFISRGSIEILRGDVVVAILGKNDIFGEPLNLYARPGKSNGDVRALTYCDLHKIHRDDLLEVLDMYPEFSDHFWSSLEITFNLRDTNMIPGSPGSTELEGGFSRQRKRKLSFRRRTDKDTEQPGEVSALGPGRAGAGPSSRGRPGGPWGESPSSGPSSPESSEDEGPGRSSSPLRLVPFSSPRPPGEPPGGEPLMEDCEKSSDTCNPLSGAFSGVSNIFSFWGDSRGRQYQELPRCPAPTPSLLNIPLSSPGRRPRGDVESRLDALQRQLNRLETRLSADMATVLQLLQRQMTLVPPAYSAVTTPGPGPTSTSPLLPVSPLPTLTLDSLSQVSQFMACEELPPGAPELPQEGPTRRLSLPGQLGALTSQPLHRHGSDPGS

[6] = target: T2, Ceramide glucosyltransferase (Homo sapiens) (UniProt Q16739); assay: Uncompetitive inhibition of GCS (unknown origin) using 1 to 70 uM C8-ceramide and 0.1 to 200 uM UDP-glucose as substrate incubated for 1 hr by RapidFire mass spectrometry
T2 sequence (whole entry): T1 sequence (Q16739 whole entry)

[7] = Intrinsic clearance in mouse liver microsomes at 1 uM in presence of NADPH generating system assessed per mg protein by LC-MS/MS analysis; assay type: ADME, Microsome; settings: read-out: CLH

Structure (SMILES)	chromatographic logD [1]	solubility kinetic [2]	pIC50 [3]	efflux ratio at 1 h, 1 µM [4]	inhibition at 5 min, 10 µM [5]	inhibition [6]	microsomal CLint at 1 µM [7]
COc1ccccc1-c1ccnc2c1CN(c1ccccc1)C2=O	2.81	4 µg/mL (≈ 12.6 µM)	4.77	–	–	–	–
CN(C)C(=O)c1ccc(N2Cc3c(ccnc3-c3ccc(F)cc3OCC(F)(F)F)C2=O)cc1	1.99	–	6.15	35	41.8%	–	–
CCCCCCCC(=O)N[C@H](CN1CCCC1)[C@H](O)c1ccc2c(c1)OCCO2	–	–	–	–	–	Active	–
CC(C)(O)c1ccc(NC(=O)c2cccc(-c3ccccc3OCC(F)(F)F)n2)cc1	3.6	–	6.77	2.2	–	–	–
CC(C)(O)c1ccc(NC(=O)c2ccnn(-c3ccc(F)cc3OCC(F)(F)F)c2=O)cc1	2.55	–	7.31	6.6	–	–	–
COc1ccccc1-c1nccc2c1CN(c1ccccc1C)C2=O	–	–	< 4.00	–	–	–	560 µL/min/mg
COc1cccc(-c2nccc3c2CN(c2ccccc2)C3=O)c1	–	–	< 4.00	–	–	–	> 768 µL/min/mg
CC(C)(O)c1ccc(NC(=O)c2cccc(-c3ccccc3OCC(F)(F)F)c2F)cc1	3.06	–	7.35	1.9	–	–	–
O=C1c2ccnc(-c3ccc(F)cc3OC(F)(F)F)c2CN1c1ccc(F)cc1	3	< 0.15 µg/mL	7.31	2.6	51.4%	–	14 µL/min/mg
CC(C)(C#N)c1ccc(N2Cc3c(ccnc3-c3ccc(F)cc3OCC(F)(F)F)C2=O)cc1	2.86	–	7.77	4	39.4%	–	–
COc1ccccc1-c1nccc2c1CN(C1CCCCC1)C2=O	–	–	< 4.00	–	–	–	727 µL/min/mg
COc1cc(F)ccc1-c1nccc2c1CN(c1ccc(F)cc1)C2=O	–	–	5.31	–	–	–	131 µL/min/mg
COc1ccccc1-c1ccc2c(c1)CN(c1ccccc1)C2=O	–	–	< 4.00	–	–	–	–
CC(C)(O)COc1ccc(N2Cc3c(ccnc3-c3ccc(F)cc3OCC(F)(F)F)C2=O)cc1	2.67	–	7.40	7.3	17.6%	–	–
COc1ccccc1-c1nccc2c1CN(c1ccc(F)cc1)C2=O	–	–	6.00	–	–	–	509 µL/min/mg
CS(=O)(=O)c1ccc(N2Cc3c(ccnc3-c3ccc(F)cc3OCC(F)(F)F)C2=O)cc1	1.86	–	6.20	32	23.7%	–	–
COc1ccccc1-c1nccc2c1CN(c1cccc(C)c1)C2=O	–	–	5.36	–	–	–	584 µL/min/mg
COc1ccccc1-n1ncc2c1CN(c1ccccc1)C2=O	2.45	22 µg/mL (≈ 72.1 µM)	5.36	–	–	–	–
COc1ccccc1-c1cccc2c1CN(c1ccccc1)C2=O	3.87	< 0.1 µg/mL	5.62	–	–	–	–
COc1ccccc1-c1cncc2c1CN(c1ccccc1)C2=O	2.94	0.9 µg/mL (≈ 2.84 µM)	5.89	–	–	–	–
O=C1c2ccnc(-c3ccccc3)c2CN1c1ccccc1	–	–	< 4.00	–	–	–	> 768 µL/min/mg
CC(C)(O)c1ccc(NC(=O)c2cccn(-c3ccccc3OCC(F)(F)F)c2=O)cc1	2.12	–	7.72	15	–	–	–
COc1ccccc1-c1nccc2c1CN(c1ccccc1)C2=O	2.84	18 µg/mL (≈ 56.9 µM)	5.72	–	–	–	> 768 µL/min/mg
CC(C)(O)c1ccc(NC(=O)c2cccc(-c3ccccc3OCC(F)(F)F)c2)cc1	3.16	–	5.49	3	–	–	–
COc1ccccc1-c1nccc2c1CN(c1ccc(C)cc1)C2=O	–	–	7.01	–	–	–	> 768 µL/min/mg
